Experimental data as given in US10011573B2, “Human androgen receptor DNA-binding domain (DBD) compounds as therapeutics and methods for their use” (The University of British Columbia, priority 2014, dated 2018).

Target: T1, AR binding to PSA and FKBP5 enhancer (Homo sapiens, UniProt P10275, T878A)
T1 construct: endogenous in cells; host or cells: LNCaP (LN-ARR2PB-eGFP reporter line for A1; parental LNCaP for ChIP)
Assay: Chromatin immunoprecipitation (ChIP) in LNCaP cells
Type: cell-based
Settings: R1881, 24 h

T1 sequence (P10275 whole entry T878A): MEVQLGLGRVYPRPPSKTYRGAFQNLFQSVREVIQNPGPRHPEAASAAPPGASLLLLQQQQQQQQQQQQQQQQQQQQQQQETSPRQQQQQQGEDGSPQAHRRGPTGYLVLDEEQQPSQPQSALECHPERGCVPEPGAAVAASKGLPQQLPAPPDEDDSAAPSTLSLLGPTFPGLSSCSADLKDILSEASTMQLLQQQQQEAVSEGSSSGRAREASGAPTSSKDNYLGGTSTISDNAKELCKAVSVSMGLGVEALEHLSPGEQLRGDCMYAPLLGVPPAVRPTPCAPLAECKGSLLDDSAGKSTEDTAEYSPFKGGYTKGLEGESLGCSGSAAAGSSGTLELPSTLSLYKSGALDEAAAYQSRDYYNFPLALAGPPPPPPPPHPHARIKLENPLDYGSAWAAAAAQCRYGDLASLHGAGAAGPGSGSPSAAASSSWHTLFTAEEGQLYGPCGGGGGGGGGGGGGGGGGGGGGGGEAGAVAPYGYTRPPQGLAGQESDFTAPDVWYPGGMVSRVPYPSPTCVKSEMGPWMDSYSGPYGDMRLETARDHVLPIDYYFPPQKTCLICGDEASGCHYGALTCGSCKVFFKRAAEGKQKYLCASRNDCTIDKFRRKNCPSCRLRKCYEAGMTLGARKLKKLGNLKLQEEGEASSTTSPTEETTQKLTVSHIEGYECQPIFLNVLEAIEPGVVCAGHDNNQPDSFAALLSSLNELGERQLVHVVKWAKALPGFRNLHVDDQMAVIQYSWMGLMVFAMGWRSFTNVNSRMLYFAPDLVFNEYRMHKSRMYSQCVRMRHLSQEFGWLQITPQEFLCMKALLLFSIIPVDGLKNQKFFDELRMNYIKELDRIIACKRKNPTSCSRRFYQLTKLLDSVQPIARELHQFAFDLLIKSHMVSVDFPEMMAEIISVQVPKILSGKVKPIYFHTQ

SMILES: Brc1ncn(-c2csc(N3CCOCC3)n2)c1Br [Compound 14449]
- AR pulldown of the PSA and FKBP5 enhancer: reduced AR pulldown
